The results in this text go back to patent publication US8168639B2, “Heterotricyclic compounds as serotonergic and/or dopaminergic agents and uses thereof” (ATIR Holding S.A., priority 2006, dated 2012).

The target of data set [1] is T1, Human recombinant serotonin 5-HT1A receptors expressed in CHO cells (Homo sapiens, UniProt P08908).
T1 construct: expressed in transfected cells; host or cells: CHO cells
T1 sequence (P08908 1-422): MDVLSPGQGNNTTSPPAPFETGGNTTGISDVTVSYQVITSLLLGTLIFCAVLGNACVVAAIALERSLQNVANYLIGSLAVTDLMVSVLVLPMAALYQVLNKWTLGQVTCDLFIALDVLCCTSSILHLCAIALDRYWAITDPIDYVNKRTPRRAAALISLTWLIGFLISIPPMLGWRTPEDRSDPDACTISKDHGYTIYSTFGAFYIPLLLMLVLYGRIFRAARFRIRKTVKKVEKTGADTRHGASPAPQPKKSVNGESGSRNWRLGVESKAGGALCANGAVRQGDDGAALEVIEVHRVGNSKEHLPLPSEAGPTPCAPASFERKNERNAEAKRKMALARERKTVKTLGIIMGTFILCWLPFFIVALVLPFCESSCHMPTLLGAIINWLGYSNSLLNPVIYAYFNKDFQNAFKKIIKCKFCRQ
The data set can be described thus: [35S]GTPγS 5-HT1A activity assay. The class given is biochemical. As to conditions: 10 μM compound; [35S]GTPγS binding increase relative to serotonin. The method, then: Human recombinant serotonin 5-HT1A receptors expressed in CHO cells were used. The tested compound were incubated with cell membranes and [^35S]GTPγS for 30 minutes in modified HEPES buffer (pH=7.4). Test compound-induced increase of [^35S]GTPγS binding was quantified relative to serotonin-induced increase of [^35S]GTPγS. Compounds were tested at concentrations of 10, 1 and 0.1 μM.

Data set [2] addresses T2, D4.4 type dopamine receptor (human recombinant, CHO cells) (Homo sapiens, UniProt P21917).
T2 construct: expressed in transfected cells; host or cells: CHO cells
T2 sequence (P21917 1-419): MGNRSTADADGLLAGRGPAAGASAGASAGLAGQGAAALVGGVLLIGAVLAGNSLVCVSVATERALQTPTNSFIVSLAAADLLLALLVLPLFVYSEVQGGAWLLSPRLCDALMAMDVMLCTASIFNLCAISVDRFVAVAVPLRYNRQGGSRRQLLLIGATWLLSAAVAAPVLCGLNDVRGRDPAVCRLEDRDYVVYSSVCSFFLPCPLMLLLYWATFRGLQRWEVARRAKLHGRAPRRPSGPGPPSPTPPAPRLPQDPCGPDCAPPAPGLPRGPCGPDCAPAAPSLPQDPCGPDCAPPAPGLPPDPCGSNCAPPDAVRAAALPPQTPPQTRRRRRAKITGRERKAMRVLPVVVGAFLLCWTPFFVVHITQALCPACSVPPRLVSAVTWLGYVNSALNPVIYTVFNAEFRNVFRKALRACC
The data set is described as follows: Competitive binding to D4.4 dopamine receptor, [3H]-YM-09151-2 radioligand. As to conditions: [3H]-YM-09151-2 0.3 nM; for D4.4(h) receptor Competitive Binding, % at 100 nM: 100 nM compound; for D4.4(h) receptor Competitive Binding, % at 1 μM: 1 μM compound. How it is done: Compounds were assayed for competitive binding to the D4.4 type dopamine receptors, which is expressed as human recombinant proteins in CHO cells, as described, for example, in Jarvis et al. (1973); Van Tol et al. (1991) and Van Tol et al. (1992).
Determination of binding to D4.4 receptor was performed using [^3H]-YM-09151-2 (70-87 Ci/mmol, 0.3 nM), as a radioligand, in with the presence of various concentrations of the tested compound. Reactions were carried out in 50 mM TRIS-HCl (pH 7.4) containing 5 mM MgCl2, 5 mM EDTA, 5 mM KCl and 1.5 mM CaCl2, for 60 minutes at 22° C. The reaction was terminated by rapid vacuum filtration onto glass fiber filters. Radioactivity trapped onto the filters was determined (counted) and compared to control values in order to accurately evaluate any interaction of the tested compound(s) with the cloned dopamine D4.4 binding site.

The target in data set [3] is T3, 5-HT1A type serotonin receptor (human recombinant, HEK-293 cells) (Homo sapiens, UniProt P08908).
T3 construct: expressed in transfected cells; host or cells: HEK-293 cells
T3 sequence (P08908 1-422): T1 sequence (P08908 1-422)
The data set can be described thus: Competitive binding to 5-HT1A receptor, [3H]-8-OH-DPAT radioligand. As to conditions: [3H]-8-OH-DPAT 0.5 nM; for 5HT1A receptor Binding % at 1 nM: 1 nM compound; for 5HT1A receptor Binding % at 10 nM: 10 nM compound; for 5HT1A receptor Binding % at 100 nM: 100 nM compound; for 5HT1A receptor Binding % at 1 μM: 1 μM compound; for 5HT1A receptor Binding % at 5 μM: 5 μM compound. How it is done:
Compounds were assayed for competitive binding to the 5-HT1A type serotonin receptor. The receptor is expressed as human recombinant proteins in HEK-293 cells, as described, for example, in Hoyer et al. (1985) and Schoeffter and Hoyer (1989).
Determination of binding to 5-HT1A receptor was performed using [^3H]-8-OH-DPAT, a 5-HT1A receptor ligand (Hoyer et al., 1985), as a radioligand (221 Ci/mmol, 0.5 nM) in the presence of various concentrations of the tested compound. Reactions were carried out in 50 mM Tris-HCl (pH 7.4) containing 10 mM MgSO4, 0.5 mM EDTA, and 0.1% ascorbic acid for 60 minutes at 25° C. The reaction was terminated by rapid vacuum filtration onto glass fiber filters. Radioactivity trapped onto the filters was determined (counted) and compared to control values in order to accurately evaluate any interaction of the test compound(s) with the cloned 5-HT1A receptor binding site.

A further data set concerns Sprague Dawley rats. The data set can be described thus: Penile erection test in rats. As to conditions: 0.3 µmol/kg, subcutaneous; for Percent of animals showing erection response: moderate to strong erection. It is filed as in vivo, rat. How it is done:
Penile erection was tested in Sprague Dawley rats. The experimental group included 50 adult male rats, with body weights in the range of 312-330 grams. The animals were housed for acclimatization in a cage, and water and food were supplied ad libitum.
Penile erection experiments were carried out in morning hours between 9 AM and 11 AM, in a dark room with a red light source. Control groups included 10 animals that received saline as a placebo, and 10 animals that received 0.3 μmol/kg body weight of apomorphine hydrochloride in 1 ml of saline, as a positive control. […]
Penile erection was tested in Sprague Dawley rats, according to the protocol described hereinabove.

The subject of data set [4] is Male ferrets (Mustela putorius furo). The data set can be described thus: Ferret emesis model. The class given is in vivo, ferret (Mustela putorius furo). As to conditions: 0.3 μmol/kg subcutaneous, observed 90 minutes. How it is done:
Male ferrets (Mustela putorius furo) were made to fast overnight before experiments. 18 animals (weighing 0.8-1.0 kg) were divided into the following three groups of six:
(1) test group—received the compound being tested, e dissolved in 1 ml saline at a dose of 0.3 μmol/kg body weight, administered subcutaneously;
(2) negative control—received saline; and
(3) positive control—received apomorphine.
Animals were placed individually in observation cages and received cat food 30 minutes before the experiment.
One ml of saline was administered subcutaneously. Apomorphine and the test compound were dissolved in 1 ml saline at a dose of 0.3 μmol/kg body weight. Induced emesis or nausea was determined by direct observation during 90 minutes following drug injection. Nausea was characterized by behavior such as licking, gagging, backing, head burying and intense abdominal grooming. Emesis was characterized by rhythmic abdominal contractions.

In the case of `O=c1[nH]c(CN2CCC(c3ccccc3)CC2)nc2sc3c(c12)CCCC3` [Compound B-93], in data set [1], the “% activation of 5HT1A at 10 μM” value is reported as “active”. For the same compound, in data set [2], the “D4.4(h) receptor Competitive Binding, % at 100 nM” value amounted to 16.69% and the “D4.4(h) receptor Competitive Binding, % at 1 μM” value worked out at 81.97%. Moreover, in data set [3], the “5HT1A receptor Binding % at 1 nM” value is listed as “active”, the “5HT1A receptor Binding % at 10 nM” value is on record as “active”, the “5HT1A receptor Binding % at 100 nM” value is given as “active” and the “5HT1A receptor Binding % at 1 μM” value was “active”. Further, the “5HT1A receptor Binding % at 5 μM” value in data set [3] is listed as “active”.

For the compound `CCOc1ccccc1N1CCN(Cc2nc3sc4c(c3c(=O)[nH]2)CCCC4)CC1` [Compound B-94], the “% activation of 5HT1A at 10 μM” value in data set [1] is 50%. Further, in data set [2], the “D4.4(h) receptor Competitive Binding, % at 100 nM” value stood at 19.14% and the “D4.4(h) receptor Competitive Binding, % at 1 μM” value is 89.02%. Also, in data set [3], the “5HT1A receptor Binding % at 1 nM” value was determined as 0.9%, the “5HT1A receptor Binding % at 10 nM” value was 20.23%, the “5HT1A receptor Binding % at 100 nM” value came to 44.56% and the “5HT1A receptor Binding % at 1 μM” value was 62.77%. Moreover, the “5HT1A receptor Binding % at 5 μM” value in data set [3] is 97.67%.

Take `O=c1[nH]c(CN2CCN(c3cccc(O)c3)CC2)nc2sc3c(c12)CCCC3` [Compound B-95]: the “% activation of 5HT1A at 10 μM” value in data set [1] is “active”. Besides, in data set [2], the “D4.4(h) receptor Competitive Binding, % at 100 nM” value is 32.26% and the “D4.4(h) receptor Competitive Binding, % at 1 μM” value is 86.68%. Moreover, in data set [3], the “5HT1A receptor Binding % at 1 nM” value is “active”, the “5HT1A receptor Binding % at 10 nM” value was “active”, the “5HT1A receptor Binding % at 100 nM” value is reported as “active” and the “5HT1A receptor Binding % at 1 μM” value was “active”. The “5HT1A receptor Binding % at 5 μM” value in data set [3] is “active”.

In the case of `Oc1cccc(N2CCN(Cc3cc4c(cn3)[nH]c3ccccc34)CC2)c1` [Compound B-96], the “% activation of 5HT1A at 10 μM” value in data set [1] was “active”. Further, in data set [2], the “D4.4(h) receptor Competitive Binding, % at 100 nM” value is 87.6% and the “D4.4(h) receptor Competitive Binding, % at 1 μM” value amounted to 102.45%. Also, in data set [3], the “5HT1A receptor Binding % at 1 nM” value is given as “active”, the “5HT1A receptor Binding % at 10 nM” value is “active”, the “5HT1A receptor Binding % at 100 nM” value is listed as “active” and the “5HT1A receptor Binding % at 1 μM” value was “active”. Further, in data set [3], the “5HT1A receptor Binding % at 5 μM” value is listed as “active”.

In the case of `CCOc1ccccc1N1CCN(Cc2cc3c(cn2)[nH]c2ccccc23)CC1` [Compound B-97], in data set [1], the “% activation of 5HT1A at 10 μM” value was determined as 48%. For the same compound, in data set [2], the “D4.4(h) receptor Competitive Binding, % at 100 nM” value came out at 74.27% and the “D4.4(h) receptor Competitive Binding, % at 1 μM” value was 100.99%. Also, in data set [3], the “5HT1A receptor Binding % at 1 nM” value came to 1.78%, the “5HT1A receptor Binding % at 10 nM” value is 37.48%, the “5HT1A receptor Binding % at 100 nM” value stood at 75.08% and the “5HT1A receptor Binding % at 1 μM” value worked out at 99.45%. Moreover, the “5HT1A receptor Binding % at 5 μM” value in data set [3] came to 100.34%.

As for `COc1ccccc1N1CCN(Cc2cc3c(cn2)[nH]c2ccccc23)CC1` [Compound B-99], in the data set with Sprague Dawley rats, the “Number of animals showing moderate to strong erection” value was 26 of the 30 animals, the “Time during which erection was shown” value was in the range of 45 to 70 min and the “Percent of animals showing erection response” value turned out to be 87%. For the same compound, in data set [4], the “Number of ferrets showing signs of nausea and/or emesis” value is given as “none”. Further, the “% activation of 5HT1A at 10 μM” value in data set [1] is listed as “active”. Besides, in data set [2], the “D4.4(h) receptor Competitive Binding, % at 100 nM” value is given as 97.43% and the “D4.4(h) receptor Competitive Binding, % at 1 μM” value was found to be 102.4%. Besides, in data set [3], the “5HT1A receptor Binding % at 1 nM” value is recorded as “active”, the “5HT1A receptor Binding % at 10 nM” value is “active”, the “5HT1A receptor Binding % at 100 nM” value is “active” and the “5HT1A receptor Binding % at 1 μM” value is “active”. Further, the “5HT1A receptor Binding % at 5 μM” value in data set [3] was “active”.

In the case of `CN1CCc2cccc3c2[C@H]1Cc1ccc(O)c(O)c1-3` [apomorphine, reference compound], in the data set on Sprague Dawley rats, the “Time during which erection was shown” value was 15 to 25 min and the “Percent of animals showing erection response” value came out at 70%. Also, the “Number of ferrets showing signs of nausea and/or emesis” value in data set [4] is 4 of the 6 ferrets.
